PubChem BioAssay (NCI)
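48-hour exposure; five concentrations; linearly interpolated endpoints. At the TGI there is no net growth.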 Where a SMILES comes first, the peptide text is derived from it. [ ]: non-standard residue; d: D form. The star is where a group is joined. X28 = COC1=CC(=O)N(C(=O)[C@@H](O*)C(C)C)[C@H]1Cc1ccccc1; Bn2Val = CC(C)[C@@H](C(=O)*)N(Cc1ccccc1)Cc1ccccc1; NMeV = CN[C@H](C(=O)O)C(C)C; dNMeA = CN[C@H](C)C(=O)O

Assays:
Assay in all cases: NCI anticancer screen, dose series, 48 h
NCI-H460 lung = system: NCI-H460 lung
SNB-75 CNS = system: SNB-75 CNS
NCI/ADR-RES ovarian = system: NCI/ADR-RES ovarian
IGROV1 ovarian = system: IGROV1 ovarian
M14 melanoma = system: M14 melanoma
UO-31 renal = system: UO-31 renal
786-0 renal = system: 786-0 renal
OVCAR-3 ovarian = system: OVCAR-3 ovarian
TK-10 renal = system: TK-10 renal
T-47D breast = system: T-47D breast

Row | SMILES | TGI (NCI-H460 lung) | TGI (SNB-75 CNS) | TGI (NCI/ADR-RES ovarian) | TGI (IGROV1 ovarian) | TGI (M14 melanoma) | TGI (UO-31 renal) | TGI (786-0 renal) | TGI (OVCAR-3 ovarian) | TGI (TK-10 renal) | TGI (T-47D breast)
1 | CCNC(=O)NNc1ncnc2c1c(-c1ccc(Cl)cc1)cn2-c1ccc(C)cc1 | 48.5 µM | 38.9 µM | 38.4 µM | 37.7 µM | 32.3 µM | 28.3 µM | 32.8 µM | 33.6 µM | 81 µM | 49.6 µM
2 | CCCCCCCCCC(O)CC(=O)c1c(O)cccc1O (stereo unspecified) |  | 34.9 µM | 38.5 µM | 36.8 µM | 44.2 µM | 38.6 µM | 50.4 µM | 41.9 µM | 45.7 µM | 71.5 µM
3 | c1ccc2[nH]c3c(N=NC4=NCCN4)c4ccccc4c-3nc2c1 | 7.81 µM | 16.4 µM | 20.1 µM | > 100 µM | 20.4 µM |  | 22.4 µM | 30.2 µM | 66.6 µM | > 100 µM
4 | CC(=O)OC12CC(C(F)(F)F)(C(F)(F)F)OC1(OC(C)=O)CC(C(F)(F)F)(C(F)(F)F)O2 (stereo unspecified) | > 100 µM | > 100 µM | > 100 µM | > 100 µM | > 100 µM | 13.3 µM | 12.4 µM | > 100 µM | > 100 µM | 8.56 µM
5 | O=C1C(C(c2ccc([N+](=O)[O-])cc2)N2CCOCC2)=C(O)C(c2ccccc2)N1c1ccccc1 (stereo unspecified) | > 10 µM | > 10 µM | > 10 µM | > 10 µM | > 10 µM | > 10 µM | > 10 µM | > 10 µM | > 10 µM | > 10 µM
6 | CCCCOc1c(C(=O)O)cc(Br)cc1C(=O)O | > 100 µM | > 100 µM | > 100 µM | > 100 µM | > 100 µM | > 100 µM | > 100 µM | > 100 µM | > 100 µM | > 100 µM
7 | CCn1c(-c2ccc(OC)cc2)nc2c1C(=O)c1ccccc1C2=O | > 100 µM | > 100 µM | > 100 µM | > 100 µM | > 100 µM |  | > 100 µM | > 100 µM | > 100 µM | > 100 µM
8 | N/C(=N\S(=O)(=O)c1ccc(-c2ccccn2)s1)Nc1ccc(Cl)cc1 | 34.8 µM | 45.7 µM | 43.5 µM | 34.1 µM | 33.6 µM | 34.9 µM | 29.4 µM | 67.6 µM | 32.1 µM | 45.6 µM
9 | O=C(NNS(=O)(=O)c1ccc(Br)cc1)c1ccc(Cl)cc1NC(=O)C12CC3CC(CC(C3)C1)C2 | 23.4 µM | 28 µM | 32.5 µM | 24.7 µM | 33.6 µM | 24.2 µM | 40 µM | 26.5 µM | 33.2 µM | > 100 µM
10 | CC(C)(C)c1ccc(O)c(C(c2ccc([N+](=O)[O-])cc2)c2cc(C(C)(C)C)ccc2O)c1 |  | 3.9 µM | 7.72 µM | 4.37 µM | 3.16 µM | 3.52 µM | 3.8 µM | 3.25 µM | 7.39 µM | 8.72 µM
11 | Nc1nc(Nc2ccc(Cl)cc2)sc1C(=O)c1c[nH]c2ccccc12 | 21.3 µM | 24.3 µM | 33.1 µM | 37.1 µM | 23.5 µM | 34.2 µM | 15.6 µM | 36 µM | 31.8 µM | 92.3 µM
12 | Cc1ccc(S(=O)(=O)/N=C2/N(C)CCCS2(=O)=O)cc1 | > 100 µM | > 100 µM | > 100 µM | > 100 µM | > 100 µM | > 100 µM | > 100 µM | > 100 µM | > 100 µM | > 100 µM
13 | Nc1ncnc2c1ncn2C1OC(CO)C(O)C1NS(=O)(=O)c1ccccc1 (stereo unspecified) | > 100 µM | > 100 µM | > 100 µM | > 100 µM | > 100 µM | > 100 µM | > 100 µM | > 100 µM | > 100 µM | > 100 µM
14 | O=C(/C=C/c1ccc(OCc2ccccc2)cc1)NCc1ccc(C(=O)NCc2ccccc2)cc1 | > 100 µM | > 100 µM | > 100 µM | > 100 µM | > 100 µM | > 100 µM | > 100 µM | > 100 µM | > 100 µM | > 100 µM
15 | COC(=O)CCCC1(CCCC(=O)OC)CCCCCCCCC(CCCC(=O)OC)(CCCC(=O)OC)C(=O)C1=O | > 100 µM | 88.7 µM | > 100 µM | 47.6 µM | > 100 µM | 0.3 µM | 33.5 µM | 79.7 µM | > 100 µM | > 100 µM
16 | COCCOC(C)C(=O)C(O)S(=O)(=O)O (stereo unspecified) | > 100 µM | > 100 µM | > 100 µM | > 100 µM | > 100 µM | > 100 µM | > 100 µM | > 100 µM | > 100 µM | > 100 µM
17 | CC(=O)NNC(=S)/N=C\c1c(O)c2ccccc2oc1=O | > 100 µM | > 100 µM | > 100 µM | > 100 µM | > 100 µM | > 100 µM | > 100 µM | > 100 µM | > 100 µM | > 100 µM
18 | Nc1nc2c(c(-c3ccccc3Cl)n1)COC/C2=C\c1ccccc1Cl | 39 µM | 35.3 µM | 33 µM | 34 µM | 29.6 µM | 32 µM | 33.1 µM | 31.2 µM | 31.9 µM | 44.8 µM

Row | SMILES | TGI (NCI-H460 lung) | TGI (SNB-75 CNS) | TGI (NCI/ADR-RES ovarian) | TGI (IGROV1 ovarian) | TGI (M14 melanoma) | TGI (UO-31 renal) | TGI (786-0 renal) | TGI (OVCAR-3 ovarian) | TGI (TK-10 renal) | TGI (T-47D breast)
19 | NC(=S)Nc1ccc2c(c1)oc1ccccc12 | > 100 µM | > 100 µM | > 100 µM | > 100 µM | > 100 µM | > 100 µM | > 100 µM | > 100 µM | > 100 µM | > 100 µM
20 | Oc1cc(Cl)cc2cc(Cl)cnc12 | 14 µM | 94 µM | 6.67 µM | 22.6 µM | > 100 µM | 20.5 µM | > 100 µM | 5.43 µM | 76.2 µM | 9.95 µM
21 | COC1=CC(=O)N(C(=O)[C@@H](OC(=O)[C@@H](C)N(C)C(=O)[C@@H]2CCCN2C(=O)[C@H](C(C)C)N(C)C(=O)[C@@H](NC(=O)[C@H](C(C)C)N(Cc2ccccc2)Cc2ccccc2)C(C)C)C(C)C)[C@H]1Cc1ccccc1 (Bn2Val-V[NMeV]P[dNMeA]-X28) | > 100 µM | > 54.8 µM | > 100 µM | > 100 µM | > 100 µM | 22.3 µM | > 100 µM | > 100 µM | > 100 µM | > 100 µM
22 | COc1cc(S(=O)(=O)Nc2ccc(-c3csc(N4C(=O)C(Cl)C4c4cccc(Oc5ccccc5)c4)n3)cc2)ccc1Cl (stereo unspecified) | > 100 µM | 45.8 µM | > 100 µM | 7.45 µM | 52.4 µM | 43.9 µM | 26.5 µM | > 100 µM |  | 41.9 µM
23 | CC(C)NCC(O)c1ccc(O)c2ncccc12 (stereo unspecified) | > 100 µM | > 100 µM | 92.5 µM | > 100 µM | > 100 µM | > 100 µM | > 100 µM | 55 µM | > 100 µM | > 100 µM
24 | C[C@@H](NC(=O)[C@@H]1C[C@]1(C)CO)c1cccc2ccccc12 | > 100 µM | > 100 µM | > 100 µM | > 100 µM | > 100 µM | > 100 µM | > 100 µM | > 100 µM | > 100 µM | > 100 µM
25 | N#C/C(=C/n1c(=S)[nH]c2ccccc21)C(N)=O | > 100 µM | > 100 µM | > 100 µM | > 100 µM | > 100 µM | > 100 µM | > 100 µM | > 100 µM |  | > 100 µM
26 | C=C1C(=O)[C@]23C[C@H]1C[C@@H](O)[C@H]2[C@]1(COC3=O)[C@@H](OC(C)=O)CC[C@@](C)(COC(C)=O)[C@H]1C=O | > 50 µM | > 50 µM | > 50 µM | > 50 µM |  | > 50 µM | > 50 µM | > 50 µM | > 50 µM | 25.4 µM
27 | COc1ccc(OC)c(NC2=NCCO2)c1 | > 100 µM | > 100 µM | > 100 µM | > 100 µM | > 100 µM | > 100 µM | > 100 µM | > 100 µM | > 100 µM | > 100 µM
28 | COC(=O)c1ccccc1NC(=S)NN(C)C |  | > 100 µM | > 100 µM | > 100 µM | > 100 µM | > 100 µM | > 100 µM | > 100 µM | > 100 µM | > 100 µM
29 | CC(C)(C)c1cc(C(=O)C2Cc3ccccc3C(=O)O2)cc(C(C)(C)C)c1O (stereo unspecified) | 23.1 µM | 33.8 µM | 50.5 µM | 32.6 µM | 25.6 µM | 23.2 µM | 24.8 µM | 25.5 µM | 28.6 µM | > 100 µM
30 | Oc1cc(O)c2c(c1)O[C@H](c1cc(O)c(O)c(O)c1)[C@@H](O)C2 | 37.7 µM | 38.7 µM | > 100 µM | 38.9 µM | 57.6 µM | 35.9 µM | 32.8 µM | 46.6 µM |  | 68.7 µM
31 | COc1cc(NS(C)(=O)=O)ccc1NCc1cnc2ccc3[nH]cccc3c12 | 42.1 µM | 39.3 µM | 62.1 µM | > 100 µM | 31.4 µM | 59 µM | 54 µM | 53.2 µM | > 81.8 µM | 50.8 µM
32 | Cc1nc2ccccc2c(=O)n1NC(=O)c1ccccc1[N+](=O)[O-] | > 100 µM | > 100 µM | > 100 µM | > 100 µM | > 100 µM | > 100 µM | > 100 µM | > 100 µM | > 100 µM | > 100 µM
33 | N/C(=N\NC(=O)c1nc2ccccc2s1)c1ccccn1 | 17.9 µM | > 45.1 µM | 15.5 µM | > 100 µM | 23.6 µM | 15.8 µM | 22.9 µM | > 100 µM | > 100 µM | > 100 µM
34 | COc1cc(OCc2nc3cc(C(F)(F)F)ccc3nc2-c2ccccc2)cc(OC)c1OC | > 100 µM | > 100 µM | > 100 µM | > 100 µM | > 100 µM | > 100 µM | > 100 µM | > 100 µM | > 100 µM | > 100 µM
35 | c1ccc(C(c2cccc3c2ccc2ccccc23)C(c2ccccc2)c2cccc3c2ccc2ccccc23)cc1 (stereo unspecified) | > 100 µM | > 100 µM | > 100 µM | > 100 µM | > 100 µM | > 100 µM | > 100 µM | > 100 µM | > 100 µM | > 100 µM
36 | CCCCC(=C=C(C)CO)C1CCCN1C(=O)OC(C)(C)C (stereo unspecified) | 31.8 µM | 53.4 µM | 42.5 µM | 43.6 µM | 35.4 µM | 37.7 µM | 30.5 µM | 31.8 µM | 48.1 µM | > 100 µM
